Reference: ChEMBL document CHEMBL3046732, “Synthesis and biological evaluation of new [1,3,4]thiadiazepino[7,6-b]quinolin-2-amines as potent anti-microbial agents” (2013)

How the values were obtained:
Alternaria alternata = test: Antimicrobial activity against Alternaria alternata assessed as growth inhibition by microdilution method; type: functional
Bacillus subtilis = test: Antimicrobial activity against Bacillus subtilis assessed as growth inhibition by microdilution method
Streptococcus pyogenes = test: Antimicrobial activity against Streptococcus pyogenes assessed as growth inhibition by microdilution method
Klebsiella aerogenes = test: Antimicrobial activity against Enterobacter aerogenes assessed as growth inhibition by microdilution method
Aspergillus flavus = test: Antimicrobial activity against Aspergillus flavus assessed as growth inhibition by microdilution method; type: functional
Staphylococcus aureus = test: Antimicrobial activity against Staphylococcus aureus assessed as growth inhibition by microdilution method
Aspergillus niger = test: Antimicrobial activity against Aspergillus niger assessed as growth inhibition by microdilution method; type: functional
Escherichia coli = test: Antimicrobial activity against Escherichia coli assessed as growth inhibition by microdilution method
Trichoderma reesei = test: Antimicrobial activity against Trichoderma reesei assessed as growth inhibition by microdilution method; type: functional
Salmonella typhimurium = test: Antimicrobial activity against Salmonella enterica subsp. enterica serovar Typhimurium assessed as growth inhibition by microdilution method
Curvularia australiensis = test: Antimicrobial activity against Curvularia australiensis assessed as growth inhibition by microdilution method; type: functional

| Structure (SMILES) | MIC (Alternaria alternata) | MIC (Bacillus subtilis) | MIC (Streptococcus pyogenes) | MIC (Klebsiella aerogenes) | MIC (Aspergillus flavus) | MIC (Staphylococcus aureus) | MIC (Aspergillus niger) | MIC (Escherichia coli) | MIC (Trichoderma reesei) | MIC (Salmonella typhimurium) | MIC (Curvularia australiensis) |
| --- | --- | --- | --- | --- | --- | --- | --- | --- | --- | --- | --- |
| COc1ccc2nc3c(cc2c1)C=NN=C(Nc1c(C)cccc1C)S3 | 1000 µg/mL | 1000 µg/mL | 500 µg/mL | 500 µg/mL | 500 µg/mL | 1000 µg/mL | 1000 µg/mL | 500 µg/mL | 500 µg/mL | 500 µg/mL | 500 µg/mL |
| COc1ccc2nc3c(cc2c1)C=NN=C(Nc1ccc(C)cc1C)S3 | 250 µg/mL | 1000 µg/mL | 1000 µg/mL | 1000 µg/mL | 1000 µg/mL | 1000 µg/mL | 1000 µg/mL | 500 µg/mL | 500 µg/mL | 500 µg/mL | 500 µg/mL |
| CCc1ccc(NC2=NN=Cc3cc4cc(OC)ccc4nc3S2)cc1 | 500 µg/mL | 500 µg/mL | 500 µg/mL | 500 µg/mL | 500 µg/mL | 500 µg/mL | 500 µg/mL | 500 µg/mL | 500 µg/mL | 500 µg/mL | 1000 µg/mL |
| COc1ccc2nc3c(cc2c1)C=NN=C(NCc1ccccc1)S3 | 1000 µg/mL | 1000 µg/mL | 1000 µg/mL | 125 µg/mL | 1000 µg/mL | 1000 µg/mL | 1000 µg/mL | 1000 µg/mL | 500 µg/mL | 500 µg/mL | 1000 µg/mL |
| COc1ccc2nc3c(cc2c1)C=NN=C(NCCN1CCOCC1)S3 | 1000 µg/mL | 500 µg/mL | 500 µg/mL | 1000 µg/mL | 500 µg/mL | 500 µg/mL | 1000 µg/mL | 500 µg/mL | 1000 µg/mL | 500 µg/mL | 1000 µg/mL |
| Cc1cccc2cc3c(nc12)SC(Nc1ccccc1)=NN=C3 | 1000 µg/mL | 1000 µg/mL | 1000 µg/mL | 1000 µg/mL | 1000 µg/mL | 1000 µg/mL | 1000 µg/mL | 1000 µg/mL | 500 µg/mL | 1000 µg/mL | > 1000 µg/mL |
| Cc1cccc2cc3c(nc12)SC(Nc1ccccc1F)=NN=C3 | 1000 µg/mL | 500 µg/mL | 1000 µg/mL | 500 µg/mL | 1000 µg/mL | 1000 µg/mL | > 1000 µg/mL | 500 µg/mL | 1000 µg/mL | 250 µg/mL | 1000 µg/mL |
| Cc1cccc2cc3c(nc12)SC(Nc1cccc(F)c1)=NN=C3 | 500 µg/mL | 1000 µg/mL | 500 µg/mL | 1000 µg/mL | 1000 µg/mL | 500 µg/mL | 1000 µg/mL | 1000 µg/mL | 500 µg/mL | 500 µg/mL | 1000 µg/mL |
| Cc1cccc2cc3c(nc12)SC(Nc1ccc(F)cc1)=NN=C3 | 500 µg/mL | 500 µg/mL | 250 µg/mL | 500 µg/mL | 1000 µg/mL | 250 µg/mL | 1000 µg/mL | 250 µg/mL | 500 µg/mL | 500 µg/mL | 1000 µg/mL |
| Cc1cccc2cc3c(nc12)SC(Nc1ccccc1Cl)=NN=C3 | 1000 µg/mL | > 1000 µg/mL | > 1000 µg/mL | > 1000 µg/mL | 1000 µg/mL | > 1000 µg/mL | > 1000 µg/mL | > 1000 µg/mL | 1000 µg/mL | > 1000 µg/mL | 500 µg/mL |
| Cc1ccc2nc3c(cc2c1)C=NN=C(Nc1ccccc1C)S3 | 1000 µg/mL | 500 µg/mL | 500 µg/mL | 500 µg/mL | 125 µg/mL | 500 µg/mL | 250 µg/mL | 1000 µg/mL | 125 µg/mL | 1000 µg/mL | 1000 µg/mL |
| Cc1ccc(NC2=NN=Cc3cc4cc(C)ccc4nc3S2)cc1 | 500 µg/mL | 1000 µg/mL | 1000 µg/mL | 60 µg/mL | 1000 µg/mL | > 1000 µg/mL | 1000 µg/mL | 1000 µg/mL | 500 µg/mL | 60 µg/mL | 1000 µg/mL |
| Cc1ccc2nc3c(cc2c1)C=NN=C(Nc1c(C)cccc1C)S3 | 500 µg/mL | 1000 µg/mL | 1000 µg/mL | 1000 µg/mL | 1000 µg/mL | 1000 µg/mL | 1000 µg/mL | 1000 µg/mL | 250 µg/mL | 1000 µg/mL | 1000 µg/mL |
| Cc1ccc(NC2=NN=Cc3cc4cc(C)ccc4nc3S2)c(C)c1 | 500 µg/mL | 500 µg/mL | 500 µg/mL | 500 µg/mL | 500 µg/mL | 500 µg/mL | 1000 µg/mL | 500 µg/mL | 125 µg/mL | 500 µg/mL | 500 µg/mL |
| CCc1ccc(NC2=NN=Cc3cc4cc(C)ccc4nc3S2)cc1 | 500 µg/mL | 1000 µg/mL | > 1000 µg/mL | > 1000 µg/mL | 1000 µg/mL | > 1000 µg/mL | 500 µg/mL | > 1000 µg/mL | 500 µg/mL | > 1000 µg/mL | 1000 µg/mL |
| Cc1ccc2nc3c(cc2c1)C=NN=C(NCc1ccccc1)S3 | 1000 µg/mL | 1000 µg/mL | 1000 µg/mL | 1000 µg/mL | > 1000 µg/mL | 1000 µg/mL | 1000 µg/mL | 1000 µg/mL | 500 µg/mL | 1000 µg/mL | 1000 µg/mL |
| Cc1ccc2nc3c(cc2c1)C=NN=C(NCCN1CCOCC1)S3 | 500 µg/mL | > 1000 µg/mL | > 1000 µg/mL | 1000 µg/mL | 500 µg/mL | 1000 µg/mL | 500 µg/mL | 500 µg/mL | 250 µg/mL | 1000 µg/mL | 500 µg/mL |
| COc1ccc2nc3c(cc2c1)C=NN=C(Nc1ccccc1)S3 | 500 µg/mL | 500 µg/mL | 60 µg/mL | 125 µg/mL | 500 µg/mL | 500 µg/mL | 500 µg/mL | 500 µg/mL | 1000 µg/mL | 60 µg/mL | 500 µg/mL |
| COc1ccc2nc3c(cc2c1)C=NN=C(Nc1ccccc1F)S3 | 125 µg/mL | 1000 µg/mL | 500 µg/mL | > 1000 µg/mL | 500 µg/mL | 500 µg/mL | 500 µg/mL | 1000 µg/mL | 250 µg/mL | > 1000 µg/mL | 500 µg/mL |
| COc1ccc2nc3c(cc2c1)C=NN=C(Nc1cccc(F)c1)S3 | 500 µg/mL | 60 µg/mL | 500 µg/mL | 500 µg/mL | 500 µg/mL | 500 µg/mL | 1000 µg/mL | 500 µg/mL | 1000 µg/mL | 1000 µg/mL | 500 µg/mL |
| COc1ccc2nc3c(cc2c1)C=NN=C(Nc1ccc(F)cc1)S3 | 60 µg/mL | 500 µg/mL | 500 µg/mL | 60 µg/mL | > 1000 µg/mL | 500 µg/mL | 1000 µg/mL | 500 µg/mL | 500 µg/mL | 250 µg/mL | 1000 µg/mL |
| COc1ccc2nc3c(cc2c1)C=NN=C(Nc1ccccc1Cl)S3 | 500 µg/mL | 30 µg/mL | 30 µg/mL | 125 µg/mL | 500 µg/mL | 1000 µg/mL | 500 µg/mL | 500 µg/mL | 500 µg/mL | 60 µg/mL | 500 µg/mL |
| COc1ccc2nc3c(cc2c1)C=NN=C(Nc1cccc(Cl)c1)S3 | 60 µg/mL | 60 µg/mL | 30 µg/mL | 250 µg/mL | 500 µg/mL | 500 µg/mL | 500 µg/mL | 30 µg/mL | 500 µg/mL | 500 µg/mL | 500 µg/mL |
| COc1ccc2nc3c(cc2c1)C=NN=C(Nc1ccc(Cl)cc1)S3 | 30 µg/mL | 60 µg/mL | 500 µg/mL | 500 µg/mL | 500 µg/mL | 500 µg/mL | 500 µg/mL | 250 µg/mL | 250 µg/mL | 1000 µg/mL | 500 µg/mL |
| COc1ccc2nc3c(cc2c1)C=NN=C(Nc1ccccc1C)S3 | 1000 µg/mL | 1000 µg/mL | 1000 µg/mL | 1000 µg/mL | 500 µg/mL | 1000 µg/mL | 1000 µg/mL | 500 µg/mL | 500 µg/mL | 125 µg/mL | 1000 µg/mL |
| COc1ccc2nc3c(cc2c1)C=NN=C(Nc1ccc(C)cc1)S3 | 500 µg/mL | 250 µg/mL | 500 µg/mL | 500 µg/mL | 1000 µg/mL | 500 µg/mL | > 1000 µg/mL | 500 µg/mL | 1000 µg/mL | 500 µg/mL | 500 µg/mL |
| Cc1ccc2nc3c(cc2c1)C=NN=C(Nc1ccccc1Cl)S3 | 1000 µg/mL | 1000 µg/mL | 500 µg/mL | 60 µg/mL | 500 µg/mL | 1000 µg/mL | > 1000 µg/mL | 500 µg/mL | 1000 µg/mL | 1000 µg/mL | 1000 µg/mL |
| Cc1ccc2nc3c(cc2c1)C=NN=C(Nc1cccc(Cl)c1)S3 | 500 µg/mL | 1000 µg/mL | > 1000 µg/mL | 250 µg/mL | 1000 µg/mL | 1000 µg/mL | 1000 µg/mL | 1000 µg/mL | 500 µg/mL | 1000 µg/mL | 1000 µg/mL |
| Cc1ccc2nc3c(cc2c1)C=NN=C(Nc1ccc(Cl)cc1)S3 | 30 µg/mL | 1000 µg/mL | > 1000 µg/mL | 1000 µg/mL | 1000 µg/mL | 1000 µg/mL | 500 µg/mL | > 1000 µg/mL | 500 µg/mL | > 1000 µg/mL | 500 µg/mL |
